In patent US6271266A (Takeda Chemical Industries, Ltd., priority 1996, dated 2001):

Experiments:
[1] = system: rat retinal neuron-neuroblastoma hybrid N18-RE-105 cells; conditions: cited from earlier work
[2] = system: patients with Alzheimer's disease; conditions: 90 mg or 120 mg 3 times a day (270 or 360 mg per day), 6 months; cited from earlier work
[3] = system: Alzheimer type senile dementia; conditions: cited from earlier work
rat hippocampal neurons [4] = assay: LDH leakage from cultured rat hippocampal neurons exposed to Aβ1-40; format: cell-based
Procedure: (§1) The cultured rat hippocampal neurons were prepared by the following procedure.
From the 18-day viviparous SD rat brain, the hippocampus was isolated on ice and treated with 0.25% trypsin and 0.1 mg/ml deoxyribonuclease I in Hank's solution at 37° C. for 10 minutes. The enzyme-treated cells were collected with a filter and suspended in Eagle's MEM containing 50 U/ml penicillin, 50 μg/ml streptomycin, 10% fetal calf serum, and 1% B27 Supplement (GIBCO). The suspension was diluted and seeded on a 48-well plate (COSTAR) precoated with poly-L-lysine, 100,000 cells/300 μl/well. Culture was carried out in the presence of 5% carbon dioxide gas at 37° C. […] On day 7 of culture, the medium was further replaced with MEM-N2 containing Aβ1-40 (Bachem) and the test drug, and the efficacy of the drug against the toxicity of Aβ1-40 was evaluated.
(§2) The lactate dehydrogenase (LDH) activity released extracellularly from the injured cells into the medium was assayed over 3-5 days after treatment and the toxicity was evaluated using the assayed activity as an indicator. In addition, on day 4 after addition of the drug, the cells were fixed with 4% paraformaldehyde, stained with anti-MAP2 antibody (Amersham) and randomly photographed under the microscope, and the number of neurons per visual field was counted.

rat hippocampal neurons [5] = assay: Number of viable neurons (anti-MAP2 staining) after Aβ1-40; format: cell-based; conditions: Aβ1-40 10 μM, day 4 after addition, FIG. 3
Procedure: as §1
From the 18-day viviparous SD rat brain, the hippocampus was isolated on ice and treated with 0.25% trypsin and 0.1 mg/ml deoxyribonuclease I in Hank's solution at 37° C. for 10 minutes. The enzyme-treated cells were collected with a filter and suspended in Eagle's MEM containing 50 U/ml penicillin, 50 μg/ml streptomycin, 10% fetal calf serum, and 1% B27 Supplement (GIBCO). The suspension was diluted and seeded on a 48-well plate (COSTAR) precoated with poly-L-lysine, 100,000 cells/300 μl/well. Culture was carried out in the presence of 5% carbon dioxide gas at 37° C. On day 4 of culture, the medium was replaced with Eagle's MEM (MEM-N2) containing 50 U/ml penicillin, 50 μg/ml streptomycin, 10 mM HEPES-Na (pH 7.3) and N2 Supplement. On day 7 of culture, the medium was further replaced with MEM-N2 containing Aβ1-40 (Bachem) and the test drug, and the efficacy of the drug against the toxicity of Aβ1-40 was evaluated.
as §2

cultured nerve cells = conditions: cited from earlier work

Molecule: COC1=C(OC)C(=O)C(CCCCCCCCCCO)=C(C)C1=O [idebenone, 6-(10-hydroxydecyl)-2,3-dimethoxy-5-methyl-1,4-benzoquinone]
- glutamate-induced neuronal death [1]: suppresses glutamate-induced neuronal death
- neuroprotection / reactive oxygen species scavenging [1]: exerts the neuroprotection by the reactive oxygen species scavenging activity
- GOT time course [2]: the changes were small with substantially no difference from the control values
- GPT time course [2]: the changes were small with substantially no difference from the control values
- efficacy in Alzheimer type senile dementia ([3]; 90 mg daily to adult patients): efficacy
- clinical effect in Alzheimer type senile dementia ([3]; high doses (270 mg-360 mg day per adult)): clinically effective
- release of LDH (rat hippocampal neurons [4]; idebenone 100 nM, Aβ1-40 10 μM, 3-5 days following addition, FIG. 2): suppressed the release of LDH
- neuronal death (rat hippocampal neurons [5]; idebenone 100 nM): inhibited neuronal death significantly
- number of viable cells (rat hippocampal neurons [5]; idebenone 100 nM, anti-MAP2 antibody): approximately equal to the number of viable cells in the control group

Molecule: Aβ1-40: β-amyloid protein 1-40 (Bachem)
- leakage of LDH activity into the medium (toxicity) (rat hippocampal neurons [4]; 3-5 days after addition of Aβ1-40, FIG. 1): dose-dependent toxicity
- number of neurons (rat hippocampal neurons [5]): decline in the number of neurons

Molecule: β-amyloid
- neuronal toxicity (cultured nerve cells): shows neuronal toxicity
